This note sets out measurements from patent publication US7618990B2, “Oxazolidone derivatives as PR modulators” (Wyeth, priority 2006, dated 2009).

A word on the inhibition: it is the share of the control response that was lost under treatment. A word on the IC50: it is the concentration needed to halve the response being measured.

One assay deals with alkaline phosphatase activity in T47D cells. The assay is described as follows: Effects of progestins and antiprogestins on alkaline phosphatase activity in T47D cells (antagonist mode). The format is cell-based. Conditions: Homo sapiens, % inhibition at 30 nM, in the presence of 1 nM progesterone, read-out: T47D Alkaline Phosphatase Activity IC50 (nM) or % inhibition. On the procedure: (1) Effects of Progestins and Antiprogestins on Alkaline Phosphatase Activity in T47D Cells
PURPOSE: To identify progestins or antiprogestins by determining a compound's effect on alkaline phosphatase activity in T47D cells.
Culture Medium: • DMEM:F12 (1:1) (GIBCO, BRL) supplemented with 5% (v/v) charcoal stripped fetal bovine serum (not heat-inactivated), 100 U/mL penicillin, 100 μg/mL streptomycin, and 2 mM the GlutaMax™ reagent (GIBCO, BRL).
Alkaline Phosphatase Assay Buffer: • I. 0.1M Tris-HCl, pH 9.8, containing 0.2% the Triton® X-100 reagent • II. 0.1M Tris-HCl, pH 9.8, containing 4 mM p-nitrophenyl phosphate (Sigma). B. Cell Culture and Treatment:
Frozen T47D cells were thawed in a 37° C. water bath and diluted to 280,000 cells/mL in culture medium. To each well in a 96-well plate (Falcon, Becton Dickinson Labware), 180 μL of diluted cell suspension was added.
Twenty μL of reference or test compounds diluted in the culture medium was then added to each well. When testing for progestin antagonist activity, reference antiprogestins or test compounds were added in the presence of 1 nM progesterone. The cells were incubated at 37° C. in a 5% CO2/humidified atmosphere for 24 h.
NOTE: For high throughput screening, one concentration of each compound was tested at 0.3 μg/mL. Based on an average molecular weight of 300 g/mol for the compounds in the library, the concentration was approximately 1 μM. Subsequently, active compounds were tested in dose response assays to determine EC50 and IC50. C. Alkaline Phosphatase Enzyme Assay:
At the end of treatment, the medium was removed from the plate. Fifty μL of assay buffer I was added to each well. The plates were shaken in a titer plate shaker for 15 min. Then 150 μL of assay buffer II was added to each well. Optical density measurements were taken at 5 min intervals for 30 min at a test wavelength of 405 nm.
For reference and test compounds, a dose response curve was generated for dose (X-axis) vs. the rate of enzyme reaction (slope) (Y-axis). Square root-transformed data was used for analysis of variance and nonlinear dose response curve fitting for both agonist and antagonist modes. Huber weighting was used to down-weight the effects of outliers. EC50 or IC50 values were calculated from the retransformed values. JMP software (SAS Institute, Inc.) was used for both one-way analysis of variance and non-linear dose response analysis in both single dose and dose response studies.
Progesterone and trimegestone were reference progestins and RU486 was the reference antiprogestin. All reference compounds were run in full dose response curves and the EC50 and IC50 values were calculated.
As to `CC1(C)COC(=O)N1c1nc(-c2ccc(Cl)cc2)cs1` [Example 114, 3-[4-(4-Chlorophenyl)-1,3-thiazol-2-yl]-4,4-dimethyl-1,3-oxazolidin-2-one], the inhibition at 0.03 µM came out at 53%.

Staying with this assay, now noted: Homo sapiens, % inhibition at 3000 nM, in the presence of 1 nM progesterone, read-out: T47D Alkaline Phosphatase Activity IC50 (nM) or % inhibition.
As for `O=C1OC[C@H](COCc2ccccc2)N1c1nc(-c2ccc(Br)cc2)cs1` [Example 91, (4S)-4-[(benzyloxy)methyl]-3-[4-(4-bromophenyl)-1,3-thiazol-2-yl]-1,3-oxazolidin-2-one], the inhibition at 3 µM amounted to 63%.
On to `CC1(C)COC(=O)N1c1nc(-c2ccc(C#N)cc2)co1` [Example 92, 4-[2-(4,4-dimethyl-2-oxo-1,3-oxazolidin-3-yl)-1,3-oxazol-4-yl]benzonitrile], for which the inhibition at 3 µM stood at 76%.
As for `CCS(=O)(=O)c1cccc(-c2csc(N3C(=O)OCC3(C)C)n2)c1` [Example 102, 3-{4-[3-(Ethylsulfonyl)phenyl]-1,3-thiazol-2-yl}-4,4-dimethyl-1,3-oxazolidin-2-one], the inhibition at 3 µM came out at 27%.
On the same count and under the same terms, to `CC1(C)COC(=O)N1c1nc(-c2ccoc2)cs1` [Example 104, 3-[4-(3-Furyl)-1,3-thiazol-2-yl]-4,4-dimethyl-1,3-oxazolidin-2-one] belongs 94%.

Staying with this assay, now noted: Homo sapiens, in the presence of 1 nM progesterone, 24 h, read-out: T47D Alkaline Phosphatase Activity IC50 (nM) or % inhibition.
Consider `N#Cc1ccc(-c2csc(N3C(=O)OCC34CCC4)n2)cc1` [Example 27, 4-[2-(6-Oxo-7-oxa-5-azaspiro[3.4]oct-5-yl)-1,3-thiazol-4-yl]benzonitrile], for which the IC50 stood at 17.1 nM.
`CN1CCN(c2nc(-c3ccc(Br)cc3)cs2)C1=O` [Example 76, 1-[4-(4-Bromophenyl)-1,3-thiazol-2-yl]-3-methylimidazolidin-2-one]: the IC50 is 733 nM.
For the molecule `CC1(C)COC(=S)N1c1nc(-c2ccc(C#N)cc2)cs1` [Example 82, 4-[2-(4,4-Dimethyl-2-thioxo-1,3-oxazolidin-3-yl)-1,3-thiazol-4-yl]benzonitrile], the IC50 stood at 6.4 nM.
In the case of `CN1CC(C)(C)N(c2nc(-c3ccc(C#N)cc3)cs2)C1=O` [Example 83, 4-[2-(3,5,5-Trimethyl-2-oxoimidazolidin-1-yl)-1,3-thiazol-4-yl]benzonitrile], the IC50 was found to be 35.4 nM.
Same read-out and setting: to `CC1(C)CN(Cc2ccccc2)C(=O)N1c1nc(-c2ccc(C#N)cc2)cs1` [Example 84, 4-[2-(3-Benzyl-5,5-dimethyl-2-oxoimidazolidin-1-yl)-1,3-thiazol-4-yl]benzonitrile] belongs 77.9 nM; to `CC1(C)COC(=O)N1c1nc(-c2ccc(C(N)=NO)cc2)cs1` [Example 85, 4-[2-(4,4-Dimethyl-2-oxo-1,3-oxazolidin-3-yl)-1,3-thiazol-4-yl]-N′-hydroxybenzene carboximidamide], 729 nM; to `CCC1(CC)COC(=O)N1c1nc2c(s1)CCc1cc(C#N)ccc1-2` [Example 86, 2-(4,4-Diethyl-2-oxo-1,3-oxazolidin-3-yl)-4,5-dihydronaphtho[1,2-d][1,3]thiazole-7-carbonitrile], 5 nM.
As to `CC1(C)COC(=O)N1c1nc(-c2ccc(C#N)cc2)c(Cl)s1` [Example 90, 4-[5-Chloro-2-(4,4-dimethyl-2-oxo-1,3-oxazolidin-3-yl)-1,3-thiazol-4-yl]benzonitrile], the IC50 is 43.5 nM.
Take `CC1(C)COC(=O)N1c1nc(-c2ccc(Br)cc2)ns1` [Example 93, 3-[3-(4-Bromophenyl)-1,2,4-thiadiazol-5-yl]-4,4-dimethyl-1,3-oxazolidin-2-one]: the IC50 was 135 nM.
Take `CC1(C)COC(=O)N1c1nc(-c2ccc(C#N)cc2)ns1` [Example 94, 4-[5-(4,4-dimethyl-2-oxo-1,3-oxazolidin-3-yl)-1,2,4-thiadiazol-3-yl]benzonitrile]: the IC50 turned out to be 146 nM.
Consider `CC1(C)COC(=O)N1c1nc(-c2ccc(C(F)(F)F)cc2)cs1` [Example 95, 4,4-Dimethyl-3-{4-[4-(trifluoromethyl)phenyl]-1,3-thiazol-2-yl}-1,3-oxazolidin-2-one], for which the concentration for half-maximal inhibition (IC50) was 108 nM.
Regarding `CC1(C)COC(=O)N1c1nc(-c2cccc(C(F)(F)F)c2)cs1` [Example 96, 4,4-Dimethyl-3-{4-[3-(trifluoromethyl)phenyl]-1,3-thiazol-2-yl}-1,3-oxazolidin-2-one], the IC50 was 328 nM.
Consider `CC1(C)COC(=O)N1c1nc(-c2ccc(OC(F)(F)F)cc2)cs1` [Example 97, 4,4-Dimethyl-3-{4-[4-(trifluoromethoxy)phenyl]-1,3-thiazol-2-yl}-1,3-oxazolidin-2-one], for which the IC50 was determined as 285 nM.
As to `COc1ccc(-c2csc(N3C(=O)OCC3(C)C)n2)cc1` [Example 98, 3-[4-(4-Methoxyphenyl)-1,3-thiazol-2-yl]-4,4-dimethyl-1,3-oxazolidin-2-one], the IC50 is 191 nM.
As to `COc1cccc(-c2csc(N3C(=O)OCC3(C)C)n2)c1` [Example 99, 3-[4-(3-Methoxyphenyl)-1,3-thiazol-2-yl]-4,4-dimethyl-1,3-oxazolidin-2-one], the IC50 came out at 64.6 nM.
In the case of `COc1ccccc1-c1csc(N2C(=O)OCC2(C)C)n1` [Example 100, 3-[4-(2-Methoxyphenyl)-1,3-thiazol-2-yl]-4,4-dimethyl-1,3-oxazolidin-2-one], the IC50 stood at 854 nM.
On to `CC1(C)COC(=O)N1c1nc(-c2c(F)cc(F)cc2F)cs1` [Example 101, 4,4-Dimethyl-3-[4-(2,4,6-trifluorophenyl)-1,3-thiazol-2-yl]-1,3-oxazolidin-2-one], for which the 50% inhibitory concentration (IC50) stood at 536 nM.
Turning to `CC1(C)COC(=O)N1c1nc(-c2ccc(CC#N)cc2)cs1` [Example 103, {4-[2-(4,4-Dimethyl-2-oxo-1,3-oxazolidin-3-yl)-1,3-thiazol-4-yl]phenyl}acetonitrile], the IC50 is 262 nM.
As for `CC1(C)COC(=O)N1c1nc(-c2ccc3[nH]ccc3c2)cs1` [Example 105, 3-[4-(1H-Indol-5-yl)-1,3-thiazol-2-yl]-4,4-dimethyl-1,3-oxazolidin-2-one], the IC50 stood at 110 nM.
As to `CC(=O)c1ccc(-c2csc(N3C(=O)OCC3(C)C)n2)cc1` [Example 106, 3-[4-(4-Acetylphenyl)-1,3-thiazol-2-yl]-4,4-dimethyl-1,3-oxazolidin-2-one], the IC50 came out at 498 nM.
With `CC(=O)c1cccc(-c2csc(N3C(=O)OCC3(C)C)n2)c1` [Example 107, 3-[4-(3-Acetylphenyl)-1,3-thiazol-2-yl]-4,4-dimethyl-1,3-oxazolidin-2-one], the IC50 came to 83.7 nM.
As to `COc1ccc(-c2csc(N3C(=O)OCC3(C)C)n2)cc1OC` [Example 108, 3-[4-(3,4-Dimethoxyphenyl)-1,3-thiazol-2-yl]-4,4-dimethyl-1,3-oxazolidin-2-one], the IC50 came to 823 nM.
In the case of `CC1(C)COC(=O)N1c1nc(-c2ccc(Cl)c(F)c2)cs1` [Example 109, 3-[4-(4-Chloro-3-fluorophenyl)-1,3-thiazol-2-yl]-4,4-dimethyl-1,3-oxazolidin-2-one], the IC50 stood at 28.8 nM.
Consider `CC1(C)OCCN1c1nc(-c2ccc(C#N)cc2)cs1` [Example 110, 4-[2-(2,2-Dimethyl-1,3-oxazolidin-3-yl)-1,3-thiazol-4-yl]benzonitrile], for which the IC50 came to 269 nM.
In the case of `N#Cc1ccc(-c2csc(N3CCOC3=O)c2)cc1` [Example 112, 4-[5-(2-Oxo-1,3-oxazolidin-3-yl)-3-thienyl]benzonitrile], the IC50 stood at 480 nM.
Consider `CC1(C)COC(=O)N1c1nc(-c2ccc(F)cc2)cs1` [Example 115, 3-[4-(4-Fluorophenyl)-1,3-thiazol-2-yl]-4,4-dimethyl-1,3-oxazolidin-2-one], for which the IC50 was 72.2 nM.
